Assay [1] addresses Ribosomal protein S6 kinase alpha-1 (Homo sapiens, UniProt Q15418). Nature of the assay: Selectivity interaction (KinomeScan (DiscoverX)) EUB0001619a RPS6KA1. The note with it: at 1 µM.
For assay [2], the target named is Rho-associated protein kinase 2 (Homo sapiens, UniProt O75116). Briefly: Selectivity interaction (KinomeScan (DiscoverX)) EUB0001619a ROCK2. As to conditions: at 1 µM.
Assay [3] has as its target T1, Ephrin type-B receptor 1 (Homo sapiens) (UniProt P54762).
T1 sequence (whole entry): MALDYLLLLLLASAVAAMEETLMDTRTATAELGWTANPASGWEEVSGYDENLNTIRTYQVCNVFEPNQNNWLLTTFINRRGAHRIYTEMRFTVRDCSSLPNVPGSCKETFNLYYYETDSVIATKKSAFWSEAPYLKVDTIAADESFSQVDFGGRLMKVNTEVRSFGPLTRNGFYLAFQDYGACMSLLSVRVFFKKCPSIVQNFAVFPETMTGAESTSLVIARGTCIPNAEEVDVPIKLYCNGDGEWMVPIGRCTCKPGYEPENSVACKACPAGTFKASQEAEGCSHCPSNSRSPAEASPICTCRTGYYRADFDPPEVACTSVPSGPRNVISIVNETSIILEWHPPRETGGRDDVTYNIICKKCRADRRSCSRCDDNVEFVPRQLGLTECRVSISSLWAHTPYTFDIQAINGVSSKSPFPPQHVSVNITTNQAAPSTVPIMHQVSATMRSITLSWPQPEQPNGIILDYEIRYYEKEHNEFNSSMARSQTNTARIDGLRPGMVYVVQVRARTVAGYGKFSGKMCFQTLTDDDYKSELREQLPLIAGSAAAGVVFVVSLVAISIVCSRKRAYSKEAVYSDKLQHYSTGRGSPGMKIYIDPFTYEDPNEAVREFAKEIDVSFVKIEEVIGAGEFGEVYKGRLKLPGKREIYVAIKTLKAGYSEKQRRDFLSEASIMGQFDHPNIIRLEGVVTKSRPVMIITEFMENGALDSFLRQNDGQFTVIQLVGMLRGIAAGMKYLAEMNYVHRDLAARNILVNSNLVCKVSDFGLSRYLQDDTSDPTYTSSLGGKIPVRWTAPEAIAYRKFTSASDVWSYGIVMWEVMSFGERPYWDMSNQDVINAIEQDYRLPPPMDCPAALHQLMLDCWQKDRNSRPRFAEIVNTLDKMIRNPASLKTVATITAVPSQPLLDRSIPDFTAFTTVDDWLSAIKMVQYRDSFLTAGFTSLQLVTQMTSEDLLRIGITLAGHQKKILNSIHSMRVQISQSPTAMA
Briefly: Selectivity interaction (KinomeScan (DiscoverX)) EUB0001619a EPHB1. The note with it: at 1 µM.

The target in assay [4] is Calcium/calmodulin-dependent protein kinase type II subunit alpha (Homo sapiens, UniProt Q9UQM7). The note with it: at 10 µM.
Calcium/calmodulin-dependent protein kinase type II subunit alpha, sequence (Q9UQM7 whole entry): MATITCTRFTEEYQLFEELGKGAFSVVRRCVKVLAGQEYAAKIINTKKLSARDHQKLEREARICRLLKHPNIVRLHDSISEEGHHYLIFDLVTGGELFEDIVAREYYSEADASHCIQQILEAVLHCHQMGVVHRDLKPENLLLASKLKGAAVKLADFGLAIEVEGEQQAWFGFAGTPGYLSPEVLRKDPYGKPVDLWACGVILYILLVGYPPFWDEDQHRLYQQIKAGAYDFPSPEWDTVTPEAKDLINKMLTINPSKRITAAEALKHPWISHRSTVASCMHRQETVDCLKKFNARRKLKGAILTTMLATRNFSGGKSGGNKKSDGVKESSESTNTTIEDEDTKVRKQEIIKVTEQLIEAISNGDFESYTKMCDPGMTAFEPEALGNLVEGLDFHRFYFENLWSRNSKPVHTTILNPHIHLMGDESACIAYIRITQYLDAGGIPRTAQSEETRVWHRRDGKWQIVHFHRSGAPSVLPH
Assay [5] deals with T2, Serine/threonine-protein kinase STK11 (Homo sapiens) (UniProt Q15831).
T2 sequence (whole entry): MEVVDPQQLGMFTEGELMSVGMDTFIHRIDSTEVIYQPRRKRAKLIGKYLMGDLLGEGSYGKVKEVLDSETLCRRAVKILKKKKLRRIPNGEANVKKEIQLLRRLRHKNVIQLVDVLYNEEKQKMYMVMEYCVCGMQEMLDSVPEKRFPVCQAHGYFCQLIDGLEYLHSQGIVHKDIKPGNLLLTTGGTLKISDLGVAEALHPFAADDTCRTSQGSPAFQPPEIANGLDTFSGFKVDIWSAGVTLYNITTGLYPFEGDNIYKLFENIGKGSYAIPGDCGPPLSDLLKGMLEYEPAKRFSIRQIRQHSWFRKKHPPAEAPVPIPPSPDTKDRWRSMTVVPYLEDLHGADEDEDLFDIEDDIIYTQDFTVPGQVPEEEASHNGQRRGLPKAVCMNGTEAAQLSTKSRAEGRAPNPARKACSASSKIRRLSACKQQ
As to conditions: at 10 µM.

The target of assay [6] is RAF proto-oncogene serine/threonine-protein kinase (Homo sapiens) (UniProt P04049). Nature of the assay: Selectivity interaction (KinomeScan (DiscoverX)) EUB0000045b RAF1.
RAF proto-oncogene serine/threonine-protein kinase (Homo sapiens), sequence (P04049 whole entry): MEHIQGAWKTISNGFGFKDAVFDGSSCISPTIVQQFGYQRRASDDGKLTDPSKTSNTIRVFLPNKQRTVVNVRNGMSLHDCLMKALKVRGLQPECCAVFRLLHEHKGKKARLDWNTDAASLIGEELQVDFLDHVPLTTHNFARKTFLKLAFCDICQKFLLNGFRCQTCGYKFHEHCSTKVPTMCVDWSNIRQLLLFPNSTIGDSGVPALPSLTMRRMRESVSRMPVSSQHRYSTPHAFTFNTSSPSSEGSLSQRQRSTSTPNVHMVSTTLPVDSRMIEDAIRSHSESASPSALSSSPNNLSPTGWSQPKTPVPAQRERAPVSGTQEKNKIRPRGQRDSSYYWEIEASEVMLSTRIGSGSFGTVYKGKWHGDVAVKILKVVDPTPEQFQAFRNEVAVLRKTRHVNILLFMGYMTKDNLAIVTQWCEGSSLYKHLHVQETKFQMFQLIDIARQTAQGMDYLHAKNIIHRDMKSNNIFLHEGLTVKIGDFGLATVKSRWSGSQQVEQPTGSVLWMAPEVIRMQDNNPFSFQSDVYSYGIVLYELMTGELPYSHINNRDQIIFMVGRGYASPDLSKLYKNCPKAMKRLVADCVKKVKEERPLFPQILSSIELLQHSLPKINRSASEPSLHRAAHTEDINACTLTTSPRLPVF
The target of assay [7] is Serine/threonine-protein kinase PAK 6 (Homo sapiens) (UniProt Q9NQU5). Briefly: Selectivity interaction (KinomeScan (DiscoverX)) EUB0000045b PAK6. The note with it: at 10 µM.
Serine/threonine-protein kinase PAK 6 (Homo sapiens), sequence (Q9NQU5 whole entry, looked up): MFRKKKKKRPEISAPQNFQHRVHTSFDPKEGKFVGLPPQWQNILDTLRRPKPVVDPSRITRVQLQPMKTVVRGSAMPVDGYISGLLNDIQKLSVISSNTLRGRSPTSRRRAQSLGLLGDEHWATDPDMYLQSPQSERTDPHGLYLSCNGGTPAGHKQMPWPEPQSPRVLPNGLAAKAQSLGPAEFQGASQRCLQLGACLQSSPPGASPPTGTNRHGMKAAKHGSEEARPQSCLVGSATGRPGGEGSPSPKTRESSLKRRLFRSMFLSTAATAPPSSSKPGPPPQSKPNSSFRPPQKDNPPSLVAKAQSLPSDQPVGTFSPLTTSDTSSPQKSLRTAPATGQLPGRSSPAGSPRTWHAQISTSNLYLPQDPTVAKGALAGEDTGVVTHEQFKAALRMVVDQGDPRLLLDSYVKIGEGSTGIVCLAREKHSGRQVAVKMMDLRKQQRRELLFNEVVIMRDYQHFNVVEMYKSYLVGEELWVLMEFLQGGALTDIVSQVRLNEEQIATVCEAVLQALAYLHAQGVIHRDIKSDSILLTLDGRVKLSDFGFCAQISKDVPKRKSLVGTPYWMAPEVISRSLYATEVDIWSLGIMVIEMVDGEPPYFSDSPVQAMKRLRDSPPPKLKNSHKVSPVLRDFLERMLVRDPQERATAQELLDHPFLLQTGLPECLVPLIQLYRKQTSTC
Assay [8] deals with Ribosomal protein S6 kinase alpha-2 (Homo sapiens) (UniProt Q15349). Briefly: Selectivity interaction (Ambit KINOMEscan and KiNATiv profiling in Jurkat cells) EUB0000090b RPS6KA2. As to conditions: at 1 µM. Type of assay: cell-based.
Ribosomal protein S6 kinase alpha-2 (Homo sapiens), sequence (Q15349 whole entry): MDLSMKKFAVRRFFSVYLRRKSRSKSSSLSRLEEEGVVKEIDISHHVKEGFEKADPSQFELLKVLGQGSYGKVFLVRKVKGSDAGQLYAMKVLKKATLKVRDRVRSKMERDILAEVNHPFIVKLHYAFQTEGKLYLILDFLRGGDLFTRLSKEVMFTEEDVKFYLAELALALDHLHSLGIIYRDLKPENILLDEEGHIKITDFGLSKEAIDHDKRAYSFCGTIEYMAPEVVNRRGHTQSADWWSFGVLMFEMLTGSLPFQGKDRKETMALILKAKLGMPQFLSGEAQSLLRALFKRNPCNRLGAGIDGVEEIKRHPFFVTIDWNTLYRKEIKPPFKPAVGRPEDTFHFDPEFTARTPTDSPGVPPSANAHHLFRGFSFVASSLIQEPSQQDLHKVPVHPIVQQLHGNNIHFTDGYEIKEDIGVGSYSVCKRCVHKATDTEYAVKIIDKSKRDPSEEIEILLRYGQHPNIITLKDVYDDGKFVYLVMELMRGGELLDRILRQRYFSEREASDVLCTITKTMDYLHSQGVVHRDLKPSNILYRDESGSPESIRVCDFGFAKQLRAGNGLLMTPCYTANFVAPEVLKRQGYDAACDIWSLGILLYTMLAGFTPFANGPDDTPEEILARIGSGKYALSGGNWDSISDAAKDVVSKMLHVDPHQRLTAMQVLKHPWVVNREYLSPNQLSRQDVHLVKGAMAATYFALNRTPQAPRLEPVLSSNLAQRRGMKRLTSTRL
The target of assay [9] is Tyrosine-protein kinase HCK (Homo sapiens) (UniProt P08631). Briefly: Selectivity interaction (Upstate Kinase Profiler service (Millipore)) EUB0000056c HCK. The note with it: at 1 µM.
Assay [10] concerns the target T3, Serine/threonine-protein kinase ULK3 (Homo sapiens) (UniProt Q6PHR2).
T3 sequence (whole entry): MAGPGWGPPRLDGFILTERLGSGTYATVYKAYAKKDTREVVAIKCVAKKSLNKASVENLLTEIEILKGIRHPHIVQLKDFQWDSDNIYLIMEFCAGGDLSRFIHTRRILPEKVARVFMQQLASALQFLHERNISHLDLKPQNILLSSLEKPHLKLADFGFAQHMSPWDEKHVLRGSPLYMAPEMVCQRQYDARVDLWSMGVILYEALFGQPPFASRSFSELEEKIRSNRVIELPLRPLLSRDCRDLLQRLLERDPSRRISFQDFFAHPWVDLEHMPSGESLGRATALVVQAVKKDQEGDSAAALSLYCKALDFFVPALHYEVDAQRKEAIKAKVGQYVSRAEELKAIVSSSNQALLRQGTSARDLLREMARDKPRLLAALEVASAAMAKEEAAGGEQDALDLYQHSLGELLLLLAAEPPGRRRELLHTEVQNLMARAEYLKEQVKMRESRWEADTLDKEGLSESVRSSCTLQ
Briefly: Selectivity interaction (KinomeScan (DiscoverX)) EUB0000655a ULK3. The note with it: at 10 µM.

Ribosomal protein S6 kinase alpha-1, sequence (Q15418 whole entry): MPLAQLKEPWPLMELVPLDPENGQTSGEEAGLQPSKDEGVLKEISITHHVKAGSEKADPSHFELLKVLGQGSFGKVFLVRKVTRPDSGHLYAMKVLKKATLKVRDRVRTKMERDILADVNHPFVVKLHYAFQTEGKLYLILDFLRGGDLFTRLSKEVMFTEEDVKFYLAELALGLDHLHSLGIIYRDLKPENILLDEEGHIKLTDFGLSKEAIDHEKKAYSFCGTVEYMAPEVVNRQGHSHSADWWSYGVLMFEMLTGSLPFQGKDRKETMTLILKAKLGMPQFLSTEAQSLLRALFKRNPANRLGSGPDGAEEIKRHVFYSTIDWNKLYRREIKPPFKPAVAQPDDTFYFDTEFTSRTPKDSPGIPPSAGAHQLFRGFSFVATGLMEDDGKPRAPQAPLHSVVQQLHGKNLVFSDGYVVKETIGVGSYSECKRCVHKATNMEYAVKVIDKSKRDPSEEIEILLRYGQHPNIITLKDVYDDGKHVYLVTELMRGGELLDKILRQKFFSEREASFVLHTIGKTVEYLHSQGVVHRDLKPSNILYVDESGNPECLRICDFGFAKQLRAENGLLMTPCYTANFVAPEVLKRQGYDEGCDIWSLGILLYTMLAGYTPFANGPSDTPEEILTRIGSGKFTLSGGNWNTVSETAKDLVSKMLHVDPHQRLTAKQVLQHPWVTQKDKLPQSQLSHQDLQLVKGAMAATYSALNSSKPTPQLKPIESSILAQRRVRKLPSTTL
Rho-associated protein kinase 2, sequence (O75116 whole entry, looked up): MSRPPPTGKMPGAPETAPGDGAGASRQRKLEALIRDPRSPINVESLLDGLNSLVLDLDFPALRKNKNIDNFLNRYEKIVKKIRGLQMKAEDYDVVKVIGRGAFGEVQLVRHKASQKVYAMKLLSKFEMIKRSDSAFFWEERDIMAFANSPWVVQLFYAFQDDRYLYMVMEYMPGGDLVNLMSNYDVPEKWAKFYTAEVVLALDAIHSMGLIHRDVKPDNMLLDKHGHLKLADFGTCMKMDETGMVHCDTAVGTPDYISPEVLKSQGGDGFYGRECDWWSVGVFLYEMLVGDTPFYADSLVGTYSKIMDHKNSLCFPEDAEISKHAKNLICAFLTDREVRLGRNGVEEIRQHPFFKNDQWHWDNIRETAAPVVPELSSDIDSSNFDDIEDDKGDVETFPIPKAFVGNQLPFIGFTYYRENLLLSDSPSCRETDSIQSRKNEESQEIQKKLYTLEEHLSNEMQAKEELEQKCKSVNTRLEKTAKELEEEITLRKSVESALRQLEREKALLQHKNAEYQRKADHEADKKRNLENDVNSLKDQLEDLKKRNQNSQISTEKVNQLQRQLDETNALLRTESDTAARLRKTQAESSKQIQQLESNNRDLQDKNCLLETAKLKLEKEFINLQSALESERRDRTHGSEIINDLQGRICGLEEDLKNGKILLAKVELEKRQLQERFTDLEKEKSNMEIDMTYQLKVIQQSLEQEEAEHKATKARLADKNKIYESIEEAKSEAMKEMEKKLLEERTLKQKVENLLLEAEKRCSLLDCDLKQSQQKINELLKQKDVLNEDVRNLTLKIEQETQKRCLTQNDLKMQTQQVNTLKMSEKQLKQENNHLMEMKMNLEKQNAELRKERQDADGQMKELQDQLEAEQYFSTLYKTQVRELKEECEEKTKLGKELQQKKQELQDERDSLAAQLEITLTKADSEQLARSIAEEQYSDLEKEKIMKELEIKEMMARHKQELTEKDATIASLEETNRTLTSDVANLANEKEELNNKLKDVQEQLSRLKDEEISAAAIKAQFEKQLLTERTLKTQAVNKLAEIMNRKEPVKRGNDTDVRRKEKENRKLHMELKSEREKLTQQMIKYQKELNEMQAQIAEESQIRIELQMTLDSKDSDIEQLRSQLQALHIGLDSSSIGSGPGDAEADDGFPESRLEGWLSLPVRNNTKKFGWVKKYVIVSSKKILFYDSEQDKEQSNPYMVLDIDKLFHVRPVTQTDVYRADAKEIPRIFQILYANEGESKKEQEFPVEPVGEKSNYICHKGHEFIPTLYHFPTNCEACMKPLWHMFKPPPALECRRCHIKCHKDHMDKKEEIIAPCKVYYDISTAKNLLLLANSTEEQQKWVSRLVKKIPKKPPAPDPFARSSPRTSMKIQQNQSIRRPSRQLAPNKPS

On to `N#Cc1cccc(-c2c[nH]c3ncnc(N4CCOCC4)c23)c1`, for which the % of control is 27% in [1], 75% in assay [2] and 100% in [3].

For `Cc1cc([C@@H](C)Nc2ccccc2C(=O)O)c2nc(N3CCOCC3)cc(=O)n2c1` [AZD-6482], the figures for the % of control in [4] and in assay [5] were 75% and 98%, respectively. Take `C=CC(=O)Nc1cc(-n2c(=O)ccc3cnc4ccc(-c5ccc(NS(C)(=O)=O)cc5)cc4c32)ccc1C`: the % of control in assay [6] (at 1 µM), in assay [6] (at 10 µM) and in assay [7] was 100% in each case. For the molecule `CN(C)C/C=C/C(=O)Nc1ccc(C(=O)N2CCCC(Nc3ncc(Cl)c(-c4c[nH]c5ccccc45)n3)C2)cc1` (stereo unspecified), in assay [8], the % of control amounted to 88%.

The molecule `Cc1ccc(-c2ccc3c(ccc4sc5c(c43)NC[C@@H](C)NC5=O)n2)cn1` had a % of inhibition in assay [9] of 46%. `CN(C)CCOc1ccc(-c2nc(-c3ccncc3)c(-c3ccc4c(c3)CC/C4=N\O)[nH]2)cc1`: the % of control in assay [10] is 88%.

(Values after ChEMBL document CHEMBL5465560, “Selectivity Literature for EUbOPEN Chemogenomic Library” (2024).)
